From PMC11947619, “Molecular mechanism of Mad2 conformational conversion promoted by the Mad2‐interaction motif of Cdc20” (Protein Science : A Publication of the Protein Society, 2025)

Molecular target: T1, O‐Mad2^LL (Homo sapiens, UniProt Q13257, A115G/DEL109-114/P116S/R117G)
T1 construct: His6-DoubleStrep-TEV (N); made in house
Test: Time-resolved NMR: conversion / binding with O-Mad2^LL (loop-less)
Format: biochemical
Conditions: two-fold molar excess peptide, 25°C
Procedure: FIGURE 5 The dynamic β5‐αC loop and C‐terminal residues in O‐Mad2 modulate Mad2 conversion. The O‐ to C‐Mad2 conversion is slowed when the highly dynamic β5‐αC loop is truncated (O‐Mad2^LL) and eliminated in the absence of the C‐terminal ten residues (O‐Mad2^∆C10). Using the side chain resonances of Trp75 and Trp167 as reporters, Mad2 conversion was traced in a 24 h time course at 25°C. Cdc20^MIM‐111‐138 peptides were added at two‐fold molar excess to Mad2 (100 μM). Severe line broadening was observed during the conversion of O‐Mad2^LL, most likely due to dimerization of O‐Mad2^LL with the newly converted C‐Mad2^LL. NMR data for O‐Mad2^R133A with Cdc20^MIM‐111‐138 shown for comparison are from Fischer et al. ([2022]).
The cloning of human wild‐type Mad2 and the mutant Mad2^R133A by the USER® method (NEB) into the pRSFDuet‐1 vector (71341‐3, Sigma‐Aldrich) with a His6‐DoubleStrep‐TEV tag at its N‐terminus was described previously (Fischer et al., [2022]). For this study, Mad2 mutants were generated as follows. The Mad2^LL expression construct was generated from the wild‐type Mad2 expression vector (Fischer et al., [2022]) by replacing residues 109–117 (TAKDDSAPR) with GSG. Mad2^ΔC10 and Mad2^Δβ7/β8 were modified from wild‐type Mad2 expression construct by deleting residues 196–205 and 166–205, respectively. Mad2^LL/R133A was modified by substituting Ala for Arg133 from the Mad2^LL expression construct. Mad2^LL/ΔC10 was modified from Mad2^LL by deleting residues 196–205. Mad2^L13A/R133A was generated from the Mad2^R133A mutant. Site‐directed mutagenesis of Mad2 was completed using the QuikChangeTM Lightning Site‐Directed Mutagenesis Kit (Agilent) developed by Stratagene Inc. (La Jolla, CA).
All peptides were synthesized by Cambridge Research Biochemicals, UK. Peptides were dialyzed into 20 mM HEPES, pH 7.0, 100 mM NaCl, and 1 mM TCEP for NMR experiments. […]
Mad2LL (grey), Mad2∆C10 (green) and Mad2LL/∆C10 (purple). […] 15N{1H}‐ heteronuclear NOE were measured at 298 K. Regions that are highly dynamic are highlighted in yellow. e. […]

T1 sequence (Q13257 with tags, fused parts or gaps DEL109-114/A115G/P116S/R117G): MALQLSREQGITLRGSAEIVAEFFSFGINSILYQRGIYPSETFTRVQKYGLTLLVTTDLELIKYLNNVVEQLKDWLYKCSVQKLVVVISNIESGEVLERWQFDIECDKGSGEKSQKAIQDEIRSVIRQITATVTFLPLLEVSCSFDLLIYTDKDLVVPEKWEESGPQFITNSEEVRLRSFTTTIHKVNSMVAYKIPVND

EHQKAWALNLNGFDVEEAKILRLSGKPQ [Cdc20^MIM‐111‐138, Cdc20^MIM peptide spanning Cdc20 residues 111–138]
binding to Mad2^LL, early spectra (HSQC, spectra collected within 15 min): no binding | slowing of conversion relative to O-Mad2^R133A with Cdc20^MIM-111-138 (O-Mad2^LL 100 μM): 8 times | time for conversion of O-Mad2^LL to C-Mad2^LL:Cdc20^MIM (O-Mad2^LL 100 μM, Trp75/Trp167 reporters): ~ 250 min
